According to patent US6372774B1, “Derivatives of N-phenylpyrazoles” (Rhone-Poulenc Agriculture Ltd., priority 1985, dated 2002):

Experiments:
Format in all cases: in vivo
[1] = system: Spodoptera littoralis (Egyptian Cotton Worm); experiment: Test 2: leaf disc spray test, Spodoptera littoralis larvae; conditions: foliar, application of 500 ppm, 2nd instar larvae on French bean leaf discs, sprayed
Excerpt: One or more of the dilutions of the compounds to be tested were made in 50% aqueous acetone.
Test species: Spodoptera littoralis (Egyptian Cotton Worm)
French bean leaf discs were set in agar in petri dishes and infected with 5 2nd instar larvae. Four replicate dishes were assigned to each treatment and were sprayed under a Potter Tower with the appropriate test dilution. After 2 days, live larvae were transferred to similar dishes containing untreated leaves set in agar. Two or three days later, the dishes were removed from the constant temperature (25° C.) room in which they had been held and the mean percentage mortalities of larvae were determined.

[2] = system: Plutella xylostella (Diamond-back Moth); experiment: whole plant or invertebrate; conditions: foliar, read-out: Plutella % m 500 ppm
In short: (§1)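 Compounds were diluted in 50% aqueous acetone and sprayed in a Potter Tower onto turnip leaf discs in agar, each infested with 10 larvae (2nd instar Plutella, 3rd instar Phaedon), with four replicates per treatment. Mean percentage larval mortality was scored 4–5 days later at 25 °C.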

[3] = system: Periplaneta americana; experiment: Test 5: injection into cockroaches; conditions: dose of 5 micrograms/g insect body weight, injected in acetone; five days after treatment
Experimental: 0.2 microliters of an acetone solution of the compound was injected through the soft cuticle between the leg and thorax of ten insects, to give a dose rate of 5 micrograms per g of insect body weight. Ten cockroaches were similarity injected with 0.2 microliters of acetone alone to serve as controls. After treatment the insects were held in plastic boxes with appropriate food. Five days after treatment the numbers of dead and alive insects were counted and percentage mortalities calculated.

[4] = system: Phaedon cochleariae (Mustard Beetle); experiment: Test 3 a): leaf disc spray test, Phaedon cochleariae larvae; conditions: Phaedon cochleariae, foliar, read-out: Phaedon % m 10 ppm
In short: as §1

SMILES	mortality at 500 ppm [1] [%]	mortality of Periplaneta americana [3] [%]	other results
Nc1c([N+](=O)[O-])c(Br)nn1-c1c(Cl)cc(C(F)(F)F)cc1Cl [Compound 105, 5-Amino-3-bromo-1-(2,6-dichloro-4-trifluoromethylphenyl)-4-nitropyrazole]	≥ 70	–	–
Nc1c([N+](=O)[O-])c(Cl)nn1-c1c(Cl)cc(C(F)(F)F)cc1Cl [Compound 106, 5-Amino-3-chloro-1-(2,6-dichloro-4-trifluoromethylphenyl)-4-nitropyrazole]	≥ 70	–	–
N#Cc1nn(-c2c(Cl)cc(C(F)(F)F)cc2Cl)c(N)c1[N+](=O)[O-] [Compound 107, 5-Amino-3-cyano-1-(2,6-dichloro-4-trifluoromethylphenyl)-4-nitropyrazole]	≥ 70	–	–
N#Cc1nn(-c2c(Cl)cc(C(F)(F)F)cc2Cl)c(N)c1C#N [Compound 110, 5-Amino-1-(2,6-dichloro-4-trifluoromethylphenyl)-3,4-dicyanopyrazole]	–	100	pest or weed control at 500 ppm [2]: 89%; pest or weed control at 10 ppm [4]: 100%
N#Cc1nn(-c2c(Cl)cc(C(F)(F)F)cc2Cl)c(NC(=O)C2CC2)c1C#N [Compound 122, 5-Cyclopropylcarbonamido-1-(2,6-dichloro-4-trifluoromethylphenyl)-3,4-dicyanopyrazole]	–	100	–
N#Cc1nn(-c2ccc(C(F)(F)F)cc2Cl)c(N)c1C#N [Compound 125, 5-Amino-1-(2-chloro-4-trifluoromethylphenyl)-3,4-dicyanopyrazole]	–	100	–
